# Values quoted from earlier work as cited in paper PMC7904743, “WIDOCK: a reactive docking protocol for virtual screening of covalent inhibitors” (Journal of Computer-Aided Molecular Design, 2021).
# Where two headings read alike, the source gives them in different places.
# Columns and labels:
# NUDT7 = details: protein labeling at 200 μM; experimental actives if % labeling higher than 50%; cited from earlier work
# OTUB2 = details: experimental actives if % labeling higher than 50%; cited from earlier work
# [1] = thiol reactivity, cited from earlier work
# [2] = natural log of average rate constant k
# [3] = natural logarithm of average rate constant
Structure (SMILES),NUDT7 % labeling (NUDT7),OTUB2 % labeling (OTUB2),"ln(avg k) [1, 2]","ln(avg k) [1, 3]"
"CCC1CN(C(=O)CCl)CCO1 (stereo not shown) [PCM-0102436, CCC1CN(C(=O)CCl)CCO1]",0%,0%,-15.658,-15.658
"CC(c1ccc(F)c(F)c1)N(C)C(=O)CCl (stereo not shown) [PCM-0102438, CC(c1ccc(F)c(F)c1)N(C)C(=O)CCl]",14%,8%,-16.135,-16.135
"N#Cc1c(NC(=O)CCl)sc2c1CCC2 [PCM-0102452, N#Cc1c(NC(=O)CCl)sc2c1CCC2]",0%,7%,-16.077,-16.077
"O=C(CCl)NCC(F)(F)F [PCM-0102456, O=C(CCl)NCC(F)(F)F]",0%,0%,-18.378,-18.378
"O=C(CCl)Nc1nc2c(s1)CCC2 [PCM-0102457, O=C(CCl)Nc1nc2c(s1)CCC2]",37%,0%,-15.357,-15.357
"N#CC1(NC(=O)CCl)CCCCCC1 [PCM-0102465, N#CC1(NC(=O)CCl)CCCCCC1]",0%,0%,-16.080,-16.080
"O=C(CCl)N1CCN(S(=O)(=O)c2ccccc2)CC1 [PCM-0102468, O=C(CCl)N1CCN(S(=O)(=O)c2ccccc2)CC1]",0%,8%,-15.364,-15.364
"O=C(CCl)N=c1sccn1Cc1ccccc1 [PCM-0102469, O=C(CCl)N=c1sccn1Cc1ccccc1]",0%,11%,-15.583,-15.583
"N#CCN(C(=O)CCl)c1ccccc1 [PCM-0102471, N#CCN(C(=O)CCl)c1ccccc1]",0%,19%,-15.586,-15.586
"O=C(CCl)N1CCNCC1 [PCM-0102476, O=C(CCl)N1CCNCC1]",0%,0%,-17.059,-17.059
"CC(c1ccccc1)N(C)C(=O)CCl (stereo not shown) [PCM-0102478, CC(c1ccccc1)N(C)C(=O)CCl]",10%,0%,-16.049,-16.049
"O=C(CCl)N1CCC(Cc2ccccc2)CC1 [PCM-0102492, O=C(CCl)N1CCC(Cc2ccccc2)CC1]",18%,18%,-16.081,-16.081
"O=C(CCl)NC(=O)NCc1ccco1 [PCM-0102494, O=C(CCl)NC(=O)NCc1ccco1]",0%,0%,-16.128,-16.128
"NC(=O)C1CCCN(C(=O)CCl)C1 (stereo not shown) [PCM-0102495, NC(=O)C1CCCN(C(=O)CCl)C1]",0%,0%,-15.454,-15.454
"O=C(CCl)NCc1cccnc1 [PCM-0102497, O=C(CCl)NCc1cccnc1]",0%,5%,-17.127,-17.127
"CC12CCC(CC1=NNC(=O)CCl)C2(C)C (stereo not shown) [PCM-0102498, CC12CCC(CC1=NNC(=O)CCl)C2(C)C]",0%,0%,-15.811,-15.811
"Cc1cc(NC(=O)CCl)no1 [PCM-0102500, Cc1cc(NC(=O)CCl)no1]",0%,35%,-15.955,-15.955
"Cc1nn(-c2ccccc2)c(C)c1NC(=O)CCl [PCM-0102501, Cc1nn(-c2ccccc2)c(C)c1NC(=O)CCl]",9%,9%,-16.489,-16.489
"CC(C)NC(=O)NC(=O)CCl [PCM-0102504, CC(C)NC(=O)NC(=O)CCl]",0%,0%,-16.238,-16.238
"O=C(CCl)Nc1ccc(Br)cc1Cl [PCM-0102505, O=C(CCl)Nc1ccc(Br)cc1Cl]",59%,7%,-16.521,-16.521
"O=C(CCl)Nc1ccccc1I [PCM-0102509, O=C(CCl)Nc1ccccc1I]",0%,0%,-16.748,-16.748
"O=C(CCl)NNC(=O)c1ccccc1F [PCM-0102510, O=C(CCl)NNC(=O)c1ccccc1F]",0%,52%,-17.412,-17.412
